# Laboratory results from paper PMC8237267 (Journal of Medicinal Chemistry, 2021).
# “Also recorded” adds a separate entry of the source.
# Assays:
# [1] = system: primary T-PLL patient samples; test: Drug combination synergy in primary T-PLL patient samples; format: cell-based, human
# Description: Primary T-PLL cells were isolated from peripheral blood (PB) of 10 T-PLL patients. All patients were diagnosed according to WHO criteria based on clinical features, immunophenotyping (flow cytometry and histochemisty; including TCL1 expression), and FISH/karyotyping.[71],[72] Samples were obtained from patients under IRB-approved protocols following written informed consent according to the Declaration of Helsinki. Collection and use of patient material have been approved for research purpose by the ethics committee of the University Hospital of Cologne (EudraCT-Nr.: #2008-001421-34 and AZ11-319) and Helsinki (303/13/03/01/2011).
# PB mononuclear cells (PBMCs) of T-PLL samples were obtained by density gradient centrifugation (Histopaque; Sigma-Aldrich). All drug screening in primary T-PLL patient samples were conducted as previously described.[34],[73]
# MRC-9 = test: Cytotoxicity assay (Cell Titer-Blue, 72 h); format: cell-based; conditions: MRC-9 (healthy fibroblasts); read-out: In cellulo IC50 MRC-9
# Mac1 = test: Cytotoxicity assay (Cell Titer-Blue, 72 h); format: cell-based; conditions: ALK- ALCL; one representative of three experiments; read-out: IC50 (heat map) Mac1
# Description: (§1) The PTCL cell lines, KHYG-1, NK-92, SNK6, DERL-2, Mac1, 1305 Myla, Hut78, SU-DHL-1 or T-ALL cell lines SUP-T11, DND-41, and MOLT4 were maintained in RPMI-1640 supplemented with 10% FBS, 0.06 g/L penicillin/0.1 g/L streptomycin (Pen/Strep, Gibco), and 2 mM L-glutamine (Gibco). Culture media of KHYG-1, NK-92, SNK6, and DERL-2 cells was additionally supplemented with 2.5 ng/mL recombinant human IL-2 (ImmunoTools GmbH, Germany). The authenticity of PTCL cell lines was confirmed by analysis of highly polymorphic short tandem repeat loci (STR) using the PowerPlex 16 HS System (Promega; performed by Microsynth AG, Switzerland).
# (§2) Cells were plated in 96-well flat-bottom sterile culture plates with low-evaporation lids (Costar #3997). The inhibitors and a vehicle control (0.5% DMSO) were added to the cells following 24 h. After 72 h, Cell Titer-Blue (Promega #G808A) was added to each well (20 μL), and the fluorescence was measured at 560/590 nm using a Cytation S63 spectrophotometer (BioTek) or a GloMax Discover Microplate Reader (Promega, Madison, WI, USA). GraphPad Prism 6.0 (GraphPad Software Inc.) was used to determine the IC50 values.
# Hut78 = test: Cytotoxicity assay (Cell Titer-Blue, 72 h); format: cell-based; conditions: Homo sapiens, CTCL, one representative of three experiments, read-out: IC50 (heat map) Hut78
# Description: as §1, §2
# HDAC11 = target: T1, HDAC11 (Homo sapiens, UniProt Q96DB2); test: HDAC EMSA activity assay (Nanosyn); format: biochemical; conditions: read-out: IC50 HDAC11
# T1 construct: The full-length human HDACs were recombinantly expressed and purified from SF9 insect cells; host or cells: SF9 insect cells
# T1 sequence (Q96DB2 1-347): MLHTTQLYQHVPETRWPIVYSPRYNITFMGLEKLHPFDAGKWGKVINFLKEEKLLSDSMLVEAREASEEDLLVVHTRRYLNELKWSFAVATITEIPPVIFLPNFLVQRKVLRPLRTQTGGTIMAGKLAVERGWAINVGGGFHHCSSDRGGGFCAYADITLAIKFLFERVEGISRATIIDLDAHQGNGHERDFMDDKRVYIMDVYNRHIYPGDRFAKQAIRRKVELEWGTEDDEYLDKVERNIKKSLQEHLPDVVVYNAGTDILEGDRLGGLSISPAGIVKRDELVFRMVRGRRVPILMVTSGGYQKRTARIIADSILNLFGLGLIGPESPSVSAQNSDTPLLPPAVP
# acetylation of α-tubulin = test: Immunofluorescence assay in HeLa cells; format: cell-based; conditions: 6 h, increasing doses
# Description: (§3) HeLa cells were plated to subconfluency on a 96-well plate (clear bottom black from Fisher Scientific). As above, inhibitors were introduced following 24 h. The cells were washed with 1× PBS, fixed with 4% formaldehyde (Millipore Sigma), permeabilized with 1% Triton X-100 (Millipore Sigma), and blocked in 5% bovine serum albumin (BSA) (BioShop) for 1 h at room temperature. Following this treatment, the cells were incubated in a cocktail composed of acetylated α-tubulin mouse monoclonal (1:100 dilution, MD Millipore) and acetylated histone H3 (1:50 dilution, Ac-Lys18, Sigma) antibodies. Secondary antibodies anti-mouse Alexa Fluor 647 and anti-rabbit Alexa Fluor 488 were used for immunofluorescent detection. Cells were counterstained for nucleic acids using 4′,6-diamidino-2-phenylindole (DAPI) (ThermoFisher Scientific). The cells were imaged with a Cytation S63 spectrophotometer and the fluorescence intensity was determined using ImageJ (n = 3). Two-way ANOVA with Tukey’s multiple comparisons test were performed using GraphPad Prism 6.0 (GraphPad Software Inc.). A p-value ≤ 0.05 was considered significant.
# [2] = system: acetylation of histone H3; test: Immunofluorescence assay in HeLa cells; format: cell-based; conditions: 6 h, increasing doses
# Description: as §3
# HDAC2 = target: T2, HDAC2 (Homo sapiens, UniProt Q92769); test: HDAC EMSA activity assay (Nanosyn); format: biochemical
# T2 construct: The full-length human HDACs were recombinantly expressed and purified from SF9 insect cells; host or cells: SF9 insect cells
# T2 sequence (Q92769 whole entry): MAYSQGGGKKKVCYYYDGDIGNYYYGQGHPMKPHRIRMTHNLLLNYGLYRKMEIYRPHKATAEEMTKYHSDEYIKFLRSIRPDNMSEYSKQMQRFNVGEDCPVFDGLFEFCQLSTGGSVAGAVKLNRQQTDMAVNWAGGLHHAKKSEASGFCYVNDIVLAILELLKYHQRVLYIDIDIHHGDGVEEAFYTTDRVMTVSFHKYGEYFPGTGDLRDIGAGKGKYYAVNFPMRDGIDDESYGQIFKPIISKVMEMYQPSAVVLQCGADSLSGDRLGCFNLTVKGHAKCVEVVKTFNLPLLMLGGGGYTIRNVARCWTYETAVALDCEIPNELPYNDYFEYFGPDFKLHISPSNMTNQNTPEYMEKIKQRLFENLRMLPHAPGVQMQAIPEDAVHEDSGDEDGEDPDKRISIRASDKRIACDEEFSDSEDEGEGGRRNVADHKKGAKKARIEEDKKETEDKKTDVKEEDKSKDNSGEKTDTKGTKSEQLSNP
# HDAC4 = target: T3, HDAC4 (Homo sapiens, UniProt P56524); test: HDAC EMSA activity assay (Nanosyn); format: biochemical
# T3 construct: The full-length human HDACs were recombinantly expressed and purified from SF9 insect cells; host or cells: SF9 insect cells
# T3 sequence (P56524 whole entry): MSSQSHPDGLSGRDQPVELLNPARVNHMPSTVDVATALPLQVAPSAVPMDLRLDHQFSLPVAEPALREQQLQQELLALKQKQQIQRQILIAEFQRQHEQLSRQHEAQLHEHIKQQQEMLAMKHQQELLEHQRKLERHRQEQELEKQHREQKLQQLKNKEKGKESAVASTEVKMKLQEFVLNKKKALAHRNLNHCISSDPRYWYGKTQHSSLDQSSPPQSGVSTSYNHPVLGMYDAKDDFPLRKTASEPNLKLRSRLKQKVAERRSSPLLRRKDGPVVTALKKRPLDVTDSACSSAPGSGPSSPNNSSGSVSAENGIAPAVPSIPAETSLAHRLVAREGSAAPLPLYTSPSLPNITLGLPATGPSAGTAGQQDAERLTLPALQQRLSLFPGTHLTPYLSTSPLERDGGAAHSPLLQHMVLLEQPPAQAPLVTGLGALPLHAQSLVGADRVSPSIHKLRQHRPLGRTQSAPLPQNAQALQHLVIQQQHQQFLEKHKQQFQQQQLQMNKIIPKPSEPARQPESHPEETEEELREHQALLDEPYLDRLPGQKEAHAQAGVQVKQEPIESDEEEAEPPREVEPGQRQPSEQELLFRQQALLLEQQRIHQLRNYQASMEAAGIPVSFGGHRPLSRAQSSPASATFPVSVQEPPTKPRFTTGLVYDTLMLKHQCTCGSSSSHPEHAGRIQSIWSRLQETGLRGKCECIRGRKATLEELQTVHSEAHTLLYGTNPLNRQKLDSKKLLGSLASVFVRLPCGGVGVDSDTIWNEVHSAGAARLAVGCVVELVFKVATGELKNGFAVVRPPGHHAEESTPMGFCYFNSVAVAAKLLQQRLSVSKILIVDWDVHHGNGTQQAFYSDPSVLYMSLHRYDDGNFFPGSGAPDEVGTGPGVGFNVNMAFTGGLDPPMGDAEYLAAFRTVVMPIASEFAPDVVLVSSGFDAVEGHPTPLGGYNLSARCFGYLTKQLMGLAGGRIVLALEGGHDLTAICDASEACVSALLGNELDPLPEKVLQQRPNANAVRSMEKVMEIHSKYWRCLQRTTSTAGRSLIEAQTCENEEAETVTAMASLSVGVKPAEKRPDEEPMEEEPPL
# CD-1 mice = test: Maximum tolerated dose / 5 day toxicity study; format: in vivo; conditions: 20 mg/kg P.O., daily for 5 days, listed as KT-531, 20 mg/kg
# Description: Acute toxicity of the lead inhibitors was studied using 4–12 week old male CD-1 mice (Charles River). A concentration of 20 mg/kg of inhibitor via oral gavage was administered to mice (n = 5) over 5 days. The vehicle consisted of 10% DMSO, 5% Cremophor EL, and 85% saline. Mice were monitored daily for toxicity effects including excessive changes in weight and hair as well as changes to posture and inactivity. All mouse studies were approved by the Local Animal Care Committee at the University of Toronto and Office of Laboratory Animal Welfare (OLAW). The mice were housed in Tecniplast Blueline ventilated cages with environmental enrichment and fed a Teklad 2019 diet supplemented with municipal water.
# MV4-11 cells = test: FACS apoptosis detection assay (Annexin V/PI); format: cell-based; conditions: MV4-11, 18 h, listed as KT-531
# Description: MV4-11 cells were prepared, dosed, and washed with cold 1× PBS. The resulting cell pellets were resuspended in 1× Binding Buffer (1 × 10^6 cell/mL) from the FITC Annexin V Apoptosis Detection Kit I (BD Pharmingen). Subsequently, the dyes annexin V (5 μL) and propidium iodide (PI, 5 μL) were added to 2.5 × 10^5 cells (250 μL). The suspension was thoroughly mixed and incubated in the dark for 15 min. Following the addition of 250 μL of 1× binding buffer, the cells were analyzed by flow cytometry within 1 h using the Cytoflex S system (Beckman Coulter).
structure (smiles),measurement,setting,value
"O=C(NO)c1ccc(CN(C2CC2)S(=O)(=O)c2cc(F)c(F)c(F)c2F)cc1 [Compound 14, 4-(((N-Cyclopropyl-2,3,4,5-tetrafluorophenyl)sulfonamido)methyl)-N-hydroxybenzamide]","combination with idasanutlin, bendamustine and venetoclax",[1],All combinations revealed synergistic relationships in patient samples
same,IC50,MRC-9,> 20 µM
same,IC50,Mac1,9.6 µM
same,IC50,Hut78,16.2 µM
same,IC50,HDAC11,> 1 µM
same,acetylation of α-tubulin (immunofluorescence),acetylation of α-tubulin,significant acetylation of α-tubulin was observed
same,acetylation of histone H3 (immunofluorescence),[2],no observable change in acetylation of histone H3
same,IC50,HDAC2,> 1 µM
same,IC50,HDAC4,> 1 µM
same,in vivo toxicity,CD-1 mice,no visible signs of toxicity or weight loss; also recorded: no observable toxicity in vivo
same,Early Apoptosis,MV4-11 cells; 0.5 μM,15%
same,Late Apoptosis,MV4-11 cells; 1 μM,22%
same,Healthy (nonapoptotic),MV4-11 cells; 2 μM,8%
